According to PubChem BioAssay AID1963844 (Molecular Pharmacology Branch, DTP, NCI, 2024):

Tested on: 422866-222-R5-J1-PDC complex spheroid viability
Assay: Anticancer human tumor 422866-222-R5-J1-PDC patient-derived pancreatic adenocarcinoma cell line growth inhibition [POLQ]
Settings: for IC50: curve of first compound; for viability, T/C: stronger effect = lower value
Outline: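 Patient-derived tumour cells were co-cultured with HUVEC and mesenchymal stem cells as multicellular spheroids at 37 °C. They were treated with POLQ inhibitors (novobiocin, ART-558, RP6685) alone or combined with other agents. Top concentrations were at or near clinical Cmax (otherwise 10 microM; SN-38 at 1 microM), decreasing in half-log steps.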

[1] = second compound 0.0316 µM, first compound 0.0316 µM
[2] = second compound 0.0316 µM, first compound 0.1 µM
[3] = second compound 0.0316 µM, first compound 0.316 µM
[4] = second compound 0.0316 µM, first compound 1 µM
[5] = second compound 0.0316 µM, first compound 3.16 µM
[6] = second compound 0.0316 µM, first compound 10 µM
[7] = second compound 0.1 µM, first compound 0.0316 µM
[8] = second compound 0.1 µM, first compound 0.1 µM
[9] = second compound 0.1 µM, first compound 0.316 µM
[10] = second compound 0.1 µM, first compound 1 µM
[11] = second compound 0.1 µM, first compound 3.16 µM
[12] = second compound 0.1 µM, first compound 10 µM
[13] = second compound 0.316 µM, first compound 0.0316 µM
[14] = second compound 0.316 µM, first compound 0.1 µM
[15] = second compound 0.316 µM, first compound 0.316 µM
[16] = second compound 0.316 µM, first compound 1 µM
[17] = second compound 0.316 µM, first compound 3.16 µM
[18] = second compound 0.316 µM, first compound 10 µM
[19] = second compound 1 µM, first compound 0.0316 µM
[20] = second compound 1 µM, first compound 0.1 µM
[21] = second compound 1 µM, first compound 0.316 µM
[22] = second compound 1 µM, first compound 1 µM
[23] = second compound 1 µM, first compound 3.16 µM
[24] = second compound 1 µM, first compound 10 µM
[25] = second compound 3.16 µM, first compound 0.0316 µM
[26] = second compound 3.16 µM, first compound 0.1 µM
[27] = second compound 3.16 µM, first compound 0.316 µM
[28] = second compound 3.16 µM, first compound 1 µM
[29] = second compound 3.16 µM, first compound 3.16 µM
[30] = second compound 3.16 µM, first compound 10 µM
[31] = second compound 10 µM, first compound 0.0316 µM
[32] = second compound 10 µM, first compound 0.1 µM
[33] = second compound 10 µM, first compound 0.316 µM
[34] = second compound 10 µM, first compound 1 µM
[35] = second compound 10 µM, first compound 3.16 µM
[36] = second compound 10 µM, first compound 10 µM
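Note: spheroids exposed to compounds for one week before readout.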
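Throughout, for viability, T/C: percent of DMSO vehicle wells luminescence so 100% = untreated viability.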

With `CCc1cc2c(N3CCc4c(cc(Cn5ccnc5)cc4-c4cn(C)nc4C(F)(F)F)C3=O)cc(C)nc2c(OC)n1` + Nc1ccc(C#CCN(C(=O)Cc2ncc(C(F)(F)F)cc2C(F)(F)F)c2ccc(F)cc2)nn1 the IC50 (second compound 0.0316 µM) was over 10 µM, the IC50 (second compound 0.1 µM) was over 10 µM and the IC50 (second compound 0.316 µM) was over 10 µM. It also gave an IC50 (second compound 1 µM) of over 10 µM, an IC50 (second compound 3.16 µM) of over 10 µM and an IC50 (second compound 10 µM) of over 10 µM. For the same compound, the viability, T/C [1] was 79.3%, the viability, T/C [2] was 88.6% and the viability, T/C [3] was 96%. It also gave a viability, T/C [4] of 115%, a viability, T/C [5] of 103% and a viability, T/C [6] of 95.5%. The viability, T/C [7] was 105%, the viability, T/C [8] was 97.4% and the viability, T/C [9] was 102%. It also gave a viability, T/C [10] of 87.1%, a viability, T/C [11] of 98.7% and a viability, T/C [12] of 99.7%. The viability, T/C [13] was 99.5%, the viability, T/C [14] was 86.3% and the viability, T/C [15] was 94.8%. It also gave a viability, T/C [16] of 88.3%, a viability, T/C [17] of 118% and a viability, T/C [18] of 100%. It also gave a viability, T/C [19] of 95.6%, a viability, T/C [20] of 75% and a viability, T/C [21] of 87.7%. It also gave a viability, T/C [22] of 99.7%, a viability, T/C [23] of 94.9% and a viability, T/C [24] of 96.2%. The viability, T/C [25] was 81.2%, the viability, T/C [26] was 93.6% and the viability, T/C [27] was 95.2%. It also gave a viability, T/C [28] of 99.2%, a viability, T/C [29] of 122% and a viability, T/C [30] of 107%. It also gave a viability, T/C [31] of 102%, a viability, T/C [32] of 112% and a viability, T/C [33] of 106%. The viability, T/C [34] was 83.7%, the viability, T/C [35] was 102% and the viability, T/C [36] was 113%.

Compound `CCc1cc2c(N3CCc4c(cc(Cn5ccnc5)cc4-c4cn(C)nc4C(F)(F)F)C3=O)ccnc2c(OC)n1` + Nc1ccc(C#CCN(C(=O)Cc2ncc(C(F)(F)F)cc2C(F)(F)F)c2ccc(F)cc2)nn1 has an IC50 (second compound 0.0316 µM) of over 10 µM, an IC50 (second compound 0.1 µM) of over 10 µM and an IC50 (second compound 0.316 µM) of over 10 µM. For the same compound, the IC50 (second compound 1 µM) was over 10 µM, the IC50 (second compound 3.16 µM) was over 10 µM and the IC50 (second compound 10 µM) was over 10 µM. For the same compound, the viability, T/C [1] was 82.5%, the viability, T/C [2] was 102% and the viability, T/C [3] was 103%. For the same compound, the viability, T/C [4] was 119%, the viability, T/C [5] was 89.2% and the viability, T/C [6] was 126%. For the same compound, the viability, T/C [7] was 79.7%, the viability, T/C [8] was 103% and the viability, T/C [9] was 112%. It also gave a viability, T/C [10] of 109%, a viability, T/C [11] of 95.6% and a viability, T/C [12] of 120%. It also gave a viability, T/C [13] of 85.7%, a viability, T/C [14] of 85.2% and a viability, T/C [15] of 79.5%. For the same compound, the viability, T/C [16] was 128%, the viability, T/C [17] was 98.9% and the viability, T/C [18] was 98.3%. The viability, T/C [19] was 82.8%, the viability, T/C [20] was 77.3% and the viability, T/C [21] was 107%. The viability, T/C [22] was 101%, the viability, T/C [23] was 113% and the viability, T/C [24] was 107%. It also gave a viability, T/C [25] of 102%, a viability, T/C [26] of 90.7% and a viability, T/C [27] of 92%. For the same compound, the viability, T/C [28] was 92.7%, the viability, T/C [29] was 114% and the viability, T/C [30] was 115%. For the same compound, the viability, T/C [31] was 92.8%, the viability, T/C [32] was 115% and the viability, T/C [33] was 93.7%. For the same compound, the viability, T/C [34] was 102%, the viability, T/C [35] was 110% and the viability, T/C [36] was 106%.

For `O=c1[nH]cc(F)c(=O)[nH]1` + Nc1ccc(C#CCN(C(=O)Cc2ncc(C(F)(F)F)cc2C(F)(F)F)c2ccc(F)cc2)nn1, the IC50 (second compound 0.0316 µM) was over 10 µM, the IC50 (second compound 0.1 µM) was over 10 µM and the IC50 (second compound 0.316 µM) was over 10 µM. It also gave an IC50 (second compound 1 µM) of over 10 µM, an IC50 (second compound 3.16 µM) of over 10 µM and an IC50 (second compound 10 µM) of over 10 µM. It also gave a viability, T/C [1] of 108%, a viability, T/C [2] of 102% and a viability, T/C [3] of 89.4%. The viability, T/C [4] was 88.2%, the viability, T/C [5] was 89.1% and the viability, T/C [6] was 79.3%. It also gave a viability, T/C [7] of 113%, a viability, T/C [8] of 90.9% and a viability, T/C [9] of 92.4%. For the same compound, the viability, T/C [10] was 96.2%, the viability, T/C [11] was 83.2% and the viability, T/C [12] was 76.7%. It also gave a viability, T/C [13] of 99.2%, a viability, T/C [14] of 106% and a viability, T/C [15] of 100%. For the same compound, the viability, T/C [16] was 93.4%, the viability, T/C [17] was 75.9% and the viability, T/C [18] was 84.7%. The viability, T/C [19] was 101%, the viability, T/C [20] was 111% and the viability, T/C [21] was 108%. For the same compound, the viability, T/C [22] was 92.4%, the viability, T/C [23] was 90.1% and the viability, T/C [24] was 83.4%. For the same compound, the viability, T/C [25] was 95%, the viability, T/C [26] was 132% and the viability, T/C [27] was 102%. For the same compound, the viability, T/C [28] was 104%, the viability, T/C [29] was 88.3% and the viability, T/C [30] was 82.6%. For the same compound, the viability, T/C [31] was 101%, the viability, T/C [32] was 118% and the viability, T/C [33] was 97.1%. The viability, T/C [34] was 100%, the viability, T/C [35] was 78.3% and the viability, T/C [36] was 83.8%.
